In patent publication US20250188092A1, “RIFAMYCIN ANALOGS” (THE REGENTS OF THE UNIVERSITY OF MICHIGAN, priority 2021, published 2025):
Where two headings read alike, the source gives them in different places.

Assays:
M. tuberculosis H37Rv = assay: Minimum bactericidal concentration (MBC, CFU Assay); type: cell-based, Mycobacterium tuberculosis; settings: for MBC: Mycobacterium tuberculosis, 168 h, Day 7, M. tuberculosis H37Rv, ≥99% reduction in colony forming units, read-out: MBC99 Day 7 (CFU Assay) MBC99
VERO cells (ATCC CRL-81) = assay: Vero cell toxicity; type: cell-based; settings: Chlorocebus sabaeus, Vero; 72 hours exposure
Method: Cytotoxicity for a mammalian cell line was determined by exposing VERO cells (ATCC CRL-81) to serial dilutions of test compounds for 72 hours, followed by addition of resazurin and measurement of fluorescence after 4 hours incubation (Choules, et al., Antimnicrob. Agents Chemother. 2019, 63, e02204-02218).

DPX2 cells = settings: for DPX2 Viability @ 6.25 μM: 24 h; for DPX2 Viability @ 25 μM: human
[1] = target: T1, E. coli S531L (RIF^R) RNAP (Escherichia coli, UniProt P0A8V2, S531L); assay: biochemical
T1 construct: made in house

[2] = target: T2, E. coli D516V (RIF^R) RNAP (Escherichia coli, UniProt P0A8V2, D516V); assay: biochemical
T2 construct: made in house

MTB H37Rv ATCC 27294 = assay: MIC, microplate Alamar Blue assay (MABA); type: cell-based, Mycobacterium tuberculosis; settings: for MIC: Mycobacterium tuberculosis, MTB H37Rv ATCC 27294, microplate Alamar Blue assay, lowest concentration giving ≥90% reduction in fluorescence, read-out: MIC90 MABA
E. coli WT RNAP = target: T3, E. coli WT RNAP (Escherichia coli, UniProt P0A8V2); assay: biochemical
T3 construct: made in house

[3] = CFU Assay MBC99 relative to rifampin (RMP = 1)

Row | SMILES | MBC99 Day 7 (CFU Assay) MBC99 Rel to RMP (M. tuberculosis H37Rv; [3]) | MBC (M. tuberculosis H37Rv) | IC50 (VERO cells (ATCC CRL-81)) | DPX2 Viability @ 6.25 μM (DPX2 cells) | DPX2 Viability @ 25 μM (DPX2 cells) | IC50 [1] | IC50 [2] | MIC90 MABA Rel to RMP (MTB H37Rv ATCC 27294) | MIC (MTB H37Rv ATCC 27294) | IC50 (E. coli WT RNAP) | MBC99 Day 7 (CFU Assay) MBC99 Rel to RMP (M. tuberculosis H37Rv)
1 | CO[C@H]1/C=C/O[C@@]2(C)Oc3c(C)c(O)c4c(=O)c(c5oc6cccc(OCCCCN7CCN(C)CC7)c6nc-5c4c3C2=O)NC(=O)/C(C)=C\C=C\[C@H](C)[C@H](O)[C@@H](C)[C@@H](O)[C@@H](C)[C@H](OC(C)=O)[C@@H]1C [Compound 5a, (7S,9E,11S,12R,13S,14R,15R,16R,17S,18S,19E,21Z)-2,15,17-Trihydroxy-11-methoxy-3,7,12,14,16,18,22-heptamethyl-32-[4-(4-methylpiperazin-1-yl)butoxy]-6,23,37-trioxo-8,27,38-trioxa-24,34-diazahexacyclo[23.11.1.1^4,7.0^5,36.0^26,35.0^28,33]octatriaconta-1(36)2,4,9,19,21,25,28(33)29,31,34-undecaen-13-yl acetate] | 0.77 | 0.1 µM | > 8 µM | 87% | 47% | 790 µM | 27 µM | 3.1 | 0.092 µM | 0.006 µM | 
2 | CO[C@H]1/C=C/O[C@@]2(C)Oc3c(C)c(O)c4c(=O)c(c5oc6cccc(OCCCCN7CCOCC7)c6nc-5c4c3C2=O)NC(=O)/C(C)=C\C=C\[C@H](C)[C@H](O)[C@@H](C)[C@@H](O)[C@@H](C)[C@H](OC(C)=O)[C@@H]1C [Compound 5b, (7S,9E,11S,12R,13S,14R,15R,16R,17S,18S,19E,21Z)-2,15,17-Trihydroxy-11-methoxy-3,7,12,14,16,18,22-heptamethyl-32-[4-(morpholin-4-yl)butoxy]-6,23,37-trioxo-8,27,38-trioxa-24,34-diazahexacyclo[23.11.1.1^4,7.0^5,36.0^26,35.0^28,33]octatriaconta-1(36)2,4,9,19,21,25,28(33)29,31,34-undecaen-13-yl acetate] | 0.38 | 0.05 µM | > 8 µM | 81% | 45% | 390 µM | 65 µM | 0.70 | 0.021 µM | 0.007 µM | 
3 | CO[C@H]1/C=C/O[C@@]2(C)Oc3c(C)c(O)c4c(=O)c(c5oc6cc(N7CCN(CC(C)C)CC7)cc(OCCCCN7CCOCC7)c6nc-5c4c3C2=O)NC(=O)/C(C)=C\C=C\[C@H](C)[C@H](O)[C@@H](C)[C@@H](O)[C@@H](C)[C@H](OC(C)=O)[C@@H]1C [Compound 6a, (7S,9E,11S,12R,13S,14R,15R,16R,17S,18S,19E,21Z)-2,15,17-Trihydroxy-11-methoxy-3,7,12,14,16,18,22-heptamethyl-30-[4-(2-methylpropyl)piperazin-1-yl]-32-[4-(morpholin-4-yl)butoxy]-6,23,37-trioxo-8,27,38-trioxa-24,34-diazahexacyclo[23.11.1.1^4,7.0^5,36.0^26,35.0^28,33]octatriaconta-1(36)2,4,9,19,21,25,28(33)29,31,34-undecaen-13-yl acetate] |  | 0.01 µM | > 8 µM | 102% | 86% | 80 µM | 39 µM | 0.80 | 0.092 µM | 0.006 µM | 0.08
4 | CO[C@H]1/C=C/O[C@@]2(C)Oc3c(C)c(O)c4c(=O)c(c5oc6cc(N7CCN(CC(C)C)CC7)cc(OCCCCN7CCN(CCn8ccnc8)CC7)c6nc-5c4c3C2=O)NC(=O)/C(C)=C\C=C\[C@H](C)[C@H](O)[C@@H](C)[C@@H](O)[C@@H](C)[C@H](OC(C)=O)[C@@H]1C [Compound 6b, (7S,9E,11S,12R,13S,14R,15R,16R,17S,18S,19E,21Z)-2,15,17-trihydroxy-32-(4-{4-[2-(1H-imidazol-1-yl)ethyl]piperazin-1-yl}butoxy)-11-methoxy-3,7,12,14,16,18,22-heptamethyl-30-[4-(2-methylpropyl)piperazin-1-yl]-6,23,37-trioxo-8,27,38-trioxa-24,34-diazahexacyclo[23.11.1.1^4,7.0^5,36.0^26,35.0^28,33]octatriaconta-1(36)2,4,9,19,21,25,28(33)29,31,34-undecaen-13-yl acetate] | 0.23 | 0.03 µM | > 8 µM | 120% | 57% | 52 µM | 51 µM | 1.6 | 0.021 µM | 0.006 µM | 
5 | CO[C@H]1/C=C/O[C@@]2(C)Oc3c(C)c(O)c4c(=O)c(c5oc6cc(N7CCN(C)CC7)cc(OCCCCN7CCN(C(=O)Cn8ccnc8)CC7)c6nc-5c4c3C2=O)NC(=O)/C(C)=C\C=C\[C@H](C)[C@H](O)[C@@H](C)[C@@H](O)[C@@H](C)[C@H](OC(C)=O)[C@@H]1C [Compound 6c, (7S,9E,11S,12R,13S,14R,15R,16R,17S,18S,19E,21Z)-2,15,17-Trihydroxy-32-(4-{4-[2-(1H-imidazol-1-yl)acetyl]piperazin-1-yl}butoxy)-11-methoxy-3,7,12,14,16,18,22-heptamethyl-30-(4-methylpiperazin-1-yl)-6,23,37-trioxo-8,27,38-trioxa-24,34-diazahexacyclo[23.11.1.1^4,7.0^5,36.0^26,35.0^28,33]octatriaconta-1(36)2,4,9,19,21,25,28(33)29,31,34-undecaen-13-yl acetate] | 0.38 | 0.05 µM | 53 µM | 108% | 111% | 230 µM | 12 µM | 2.7 | 0.039 µM | 0.01 µM | 
6 | CO[C@H]1/C=C/O[C@@]2(C)Oc3c(C)c(O)c4c(=O)c(c5oc6cc(N7CCN(CC(C)C)CC7)cc(OCCCCN7CCN(C(=O)Cn8ccnc8)CC7)c6nc-5c4c3C2=O)NC(=O)/C(C)=C\C=C\[C@H](C)[C@H](O)[C@@H](C)[C@@H](O)[C@@H](C)[C@H](OC(C)=O)[C@@H]1C [Compound 6d, (7S,9E,11S,12R,13S,14R,15R,16R,17S,18S,19E,21Z)-2,15,17-Trihydroxy-32-(4-{4-[2-(1H-imidazol-1-yl)acetyl]piperazin-1-yl}butoxy)-11-methoxy-3,7,12,14,16,18,22-heptamethyl-30-[4-(2-methylpropyl)piperazin-1-yl]-6,23,37-trioxo-8,27,38-trioxa-24,34-diazahexacyclo[23.11.1.1^4,7.0^5,36.0^26,35.0^28,33]octatriaconta-1(36)2,4,9,19,21,25,28,30,32,34-undecaen-13-yl acetate] | 0.23 | 0.03 µM | > 8 µM | 104% | 90% | 93 µM | 59 µM | 1.3 | 0.024 µM | 0.008 µM | 
7 | CO[C@H]1/C=C/O[C@@]2(C)Oc3c(C)c(O)c4c(=O)c(c5oc6cc(N7CCN(CC(C)C)CC7)cc(OCc7cccc(CN8CCN(C(=O)Cn9ccnc9)CC8)c7)c6nc-5c4c3C2=O)NC(=O)/C(C)=C\C=C\[C@H](C)[C@H](O)[C@@H](C)[C@@H](O)[C@@H](C)[C@H](OC(C)=O)[C@@H]1C [Compound 12c, (7S,9E,11S,12R,13S,14R,15R,16R,17S,18S,19E,21Z)-2,15,17-Trihydroxy-32-{[3-({4-[2-(1H-imidazol-1-yl)acetyl]piperazin-1-yl}methyl)phenyl]methoxy}-11-methoxy-3,7,12,14,16,18,22-heptamethyl-30-[4-(2-methylpropyl)piperazin-1-yl]-6,23,37-trioxo-8,27,38-trioxa-24,34-diazahexacyclo[23.11.1.1^4,7.0^5,36.0^26,35.0^28,33]octatriaconta-1(36)2,4,9,19,21,25,28,30,32,34-undecaen-13-yl acetate] | <0.08 | < 0.02 µM | > 8 µM | 107% | 95% | 66 µM | 17 µM | 0.12 | 0.0048 µM | 0.014 µM | 
8 | CO[C@H]1/C=C/O[C@@]2(C)Oc3c(C)c(O)c4c(=O)c(c5oc6cccc(OCc7ccc(CN8CCN(C(=O)Cn9ccnc9)CC8)cc7)c6nc-5c4c3C2=O)NC(=O)/C(C)=C\C=C\[C@H](C)[C@H](O)[C@@H](C)[C@@H](O)[C@@H](C)[C@H](OC(C)=O)[C@@H]1C [Compound 16b, (7S,9E,11S,12R,13S,14R,15R,16R,17S,18S,19E,21Z)-2,15,17-Trihydroxy-32-{[4-({4-[2-(1H-imidazol-1-yl)acetyl]piperazin-1-yl}methyl)phenyl]methoxy}-11-methoxy-3,7,12,14,16,18,22-heptamethyl-6,23,37-trioxo-8,27,38-trioxa-24,34-diazahexacyclo[23.11.1.1^4,7.0^5,36.0^26,35.0^28,33]octatriaconta-1(36)2,4,9,19,21,25,28,30,32,34-undecaen-13-yl acetate] | 0.15 | 0.02 µM | > 8 µM | 117% | 76% | 160 µM | 24 µM | 1.6 | 0.029 µM | 0.005 µM | 
